Experimental data as given in patent US8791102B2, “Acetanilide sphingosine-1-phosphate receptor antagonists” (Exelixis, Inc., priority 2008, dated 2014).

target: T1, human S1P1 receptors (Homo sapiens, UniProt P21453); experiment: S1P1R antagonist assay (fluorescent membrane potential dye, cAMP readout); assay type: cell-based; settings: HEK293 cells expressing human S1P1 receptors and CNG channel; 500 nM NECA; S1P1R agonist 10 nM; 90 minutes; read-out: EC50 or IC50 value
T1 construct: host or cells: HEK293
T1 sequence (P21453 whole entry): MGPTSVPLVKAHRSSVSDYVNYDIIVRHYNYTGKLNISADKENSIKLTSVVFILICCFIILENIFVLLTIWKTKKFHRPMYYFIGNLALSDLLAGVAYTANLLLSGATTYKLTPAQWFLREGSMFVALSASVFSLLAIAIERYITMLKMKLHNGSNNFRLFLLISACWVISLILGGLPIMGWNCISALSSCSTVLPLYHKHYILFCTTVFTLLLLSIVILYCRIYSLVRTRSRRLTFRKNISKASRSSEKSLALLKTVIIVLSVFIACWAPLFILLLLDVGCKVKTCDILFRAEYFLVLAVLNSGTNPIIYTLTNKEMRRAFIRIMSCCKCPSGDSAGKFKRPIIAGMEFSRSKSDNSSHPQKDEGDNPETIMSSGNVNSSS

`O=C(Cc1c[nH]cn1)N[C@@H](COCc1ccccc1)C(=O)Nc1ccc(OCc2ccccc2)cc1` [Compound 211, (S)-2-(2-(1H-imidazol-4-yl)acetamido)-3-(benzyloxy)-N-(4-(benzyloxy)phenyl)propanamide] and `O=C(Cc1c[nH]cn1)N[C@@H](COCc1ccccc1)C(=O)Nc1ccc(Oc2ncc(Br)s2)cc1` [Compound 156, (S)-2-(2-(1H-imidazol-4-yl)acetamido)-3-(benzyloxy)-N-(4-(5-bromothiazol-2-yloxy)phenyl)propanamide] cannot be ordered by IC50: no more than 300 nM for the first, no more than 300 nM for the second.

`CC(O)CC(=O)N1C[C@H](Cc2ccccc2)C[C@H]1C(=O)Nc1ccc(Oc2ccc(F)cc2)cc1` (stereo partly drawn) [Compound 118, (2S,4R)-4-benzyl-N-(4-(4-fluorophenoxy)phenyl)-1-(3-hydroxybutanoyl)pyrrolidine-2-carboxamide] and `N#CCC(=O)N1C[C@H](Cc2ccccc2)C[C@H]1C(=O)Nc1ccc(Oc2ccc(F)cc2)cc1` [Compound 129, (2S,4R)-4-benzyl-1-(2-cyanoacetyl)-N-(4-(4-fluorophenoxy)phenyl)pyrrolidine-2-carboxamide] cannot be ordered by IC50: no more than 300 nM for the first, no more than 300 nM for the second.

`O=C(NC(COCc1ccccc1)C(=O)Nc1ccc(Oc2ccccc2)cc1)C1Cc2ccccc2C1` (stereo not drawn) [Compound 188, N-(3-(benzyloxy)-1-oxo-1-(4-phenoxyphenylamino)propan-2-yl)-2,3-dihydro-1H-indene-2-carboxamide] and `O=C(NC(COCc1ccccc1)C(=O)Nc1ccc(Oc2ccccc2)cc1)C1CC1` (stereo not drawn) [Compound 277, N-(2-oxo-1-{[(phenylmethyl)oxy]methyl}-2-{[4-(phenyloxy)phenyl]amino}ethyl)cyclopropylamide] cannot be ordered by IC50: 300 to 1000 nM for the first, no more than 300 nM for the second.

`O=C(NC(COCc1ccccc1)C(=O)Nc1ccc(Oc2ccccc2)cc1)c1cnc2ccccc2c1` (stereo not drawn) [Compound 350, N-(2-oxo-1-{[(phenylmethyl)oxy]methyl}-2-{[4-(phenyloxy)phenyl]amino}ethyl)quinoline-3-carboxamide] and `O=C(NC(COCc1ccccc1)C(=O)Nc1ccc(Oc2ccccc2)cc1)c1ccc2[nH]cnc2c1` (stereo not drawn) [Compound 342, N-(2-oxo-1-{[(phenylmethyl)oxy]methyl}-2-{[4-(phenyloxy)phenyl]amino}ethyl)-1H-benzimidazole-5-carboxamide] cannot be ordered by IC50: greater than 1000 nM for the first, greater than 1000 nM for the second.

`Cc1cn(CC(=O)N[C@@H](COCc2ccccc2)C(=O)Nc2ccc(Oc3ccc(F)cc3)cc2)nn1` [Compound 153, (S)-3-(benzyloxy)-N-(4-(4-fluorophenoxy)phenyl)-2-(2-(4-methyl-1H-1,2,3-triazol-1-yl)acetamido)propanamide] and `O=C(Cn1ccnn1)N[C@@H](COCc1ccccc1)C(=O)Nc1ccc(Oc2ccc(F)cc2)cc1` [Compound 174, (S)-2-(2-(1H-1,2,3-triazol-1-yl)acetamido)-3-(benzyloxy)-N-(4-(4-fluorophenoxy)phenyl)propanamide] cannot be ordered by IC50: no more than 300 nM for the first, no more than 300 nM for the second.

`O=C(Nc1ccc(Oc2ccc(F)cc2)cc1)[C@@H]1C[C@@H](Cc2ccccc2)CN1C(=O)C1CCCO1` (stereo partly drawn) [Compound 92, (2S,4R)-4-benzyl-N-(4-(4-fluorophenoxy)phenyl)-1-(tetrahydrofuran-2-carbonyl)pyrrolidine-2-carboxamide] and `CC(=O)N1CCC[C@H]1C(=O)N1C[C@H](Cc2ccccc2)C[C@H]1C(=O)Nc1ccc(Oc2ccc(F)cc2)cc1` [Compound 93, (2S,4R)-1-((S)-1-acetylpyrrolidine-2-carbonyl)-4-benzyl-N-(4-(4-fluorophenoxy)phenyl)pyrrolidine-2-carboxamide] cannot be ordered by IC50: no more than 300 nM for the first, no more than 300 nM for the second.

Compared with `Cc1ccc(C)c(CC(=O)NC(COCc2ccccc2)C(=O)Nc2ccc(Oc3ccccc3)cc2)c1` (stereo not drawn) [Compound 373, N-(2-oxo-1-{[(phenylmethyl)oxy]methyl}-2-{[4-(phenyloxy)phenyl]amino}ethyl)-2-(2,5-dimethylphenyl)acetamide], `O=C(Cc1ccccc1Br)NC(COCc1ccccc1)C(=O)Nc1ccc(Oc2ccccc2)cc1` (stereo not drawn) [Compound 301, N-(2-oxo-1-{[(phenylmethyl)oxy]methyl}-2-{[4-(phenyloxy)phenyl]amino}ethyl)-2-bromophenylacetamide] is lower in IC50: greater than 1000 nM for the first, 300 to 1000 nM for the second.

Compared with `O=C(NC(COCc1ccccc1)C(=O)Nc1ccc(Oc2ccccc2)cc1)c1ccc(C(F)(F)F)cc1C(F)(F)F` (stereo not drawn) [Compound 362, N-(2-oxo-1-{[(phenylmethyl)oxy]methyl}-2-{[4-(phenyloxy)phenyl]amino}ethyl)-2,4-bis(trifluoromethyl)benzamide], `Cc1ccoc1C(=O)NC(COCc1ccccc1)C(=O)Nc1ccc(Oc2ccccc2)cc1` (stereo not drawn) [Compound 401, 3-methyl-N-(2-oxo-1{[(phenylmethyl)oxy]methyl}-2-{[4-(phenyloxy)phenyl]amino}ethyl)furan-2-carboxamide] is higher in IC50: 300 to 1000 nM for the first, greater than 1000 nM for the second. The first is the more potent here.

First: O=C(CCCc1cccs1)NC(COCc1ccccc1)C(=O)Nc1ccc(Oc2ccccc2)cc1 (stereo not drawn) [Compound 325, N-(2-oxo-1-{[(phenylmethyl)oxy]methyl}-2-{[4-(phenyloxy)phenyl]amino}ethyl)-4-(2-thienyl)butanamide]
Second: O=C(CSCc1ccccc1)NC(COCc1ccccc1)C(=O)Nc1ccc(Oc2ccccc2)cc1 (stereo not drawn) [Compound 374, N-(2-oxo-1-{[(phenylmethyl)oxy]methyl}-2-{[4-(phenyloxy)phenyl]amino}ethyl)-2-(benzylthio)acetamide]
The IC50 of the first is lower: 300 to 1000 nM for the first, greater than 1000 nM for the second.

Compared with `CN1CCCC1CC1CCCCN1CC(=O)N[C@@H](COCc1ccccc1)C(=O)Nc1ccc(Oc2ccc(F)cc2)cc1` (stereo in doubt) [Compound 113, (2S)-3-(benzyloxy)-N-(4-(4-fluorophenoxy)phenyl)-2-(2-(2-(((S)-1-methylpyrrolidin-2-yl)methyl)piperidin-1-yl)acetamido)propanamide], `CC(=O)N1CCN(CC(=O)N[C@@H](COCc2ccccc2)C(=O)Nc2ccc(Oc3ccc(F)cc3)cc2)CC1` [Compound 236, (S)-2-(2-(4-acetylpiperazin-1-yl)acetamido)-3-(benzyloxy)-N-(4-(4-fluorophenoxy)phenyl)propanamide] is lower in IC50: greater than 1000 nM for the first, 300 to 1000 nM for the second. The second is the more potent here.

`Cc1[nH]c2ccccc2c1CC(=O)N1C[C@H](Cc2ccccc2)C[C@H]1C(=O)Nc1ccc(Oc2ccc(F)cc2)cc1` [Compound 37, (2S,4R)-4-benzyl-N-(4-(4-fluorophenoxy)phenyl)-1-(2-(2-methyl-1H-indol-3-yl)acetyl)pyrrolidine-2-carboxamide] and `O=C(CCC(=O)N1C[C@H](Cc2ccccc2)C[C@H]1C(=O)Nc1ccc(Oc2ccc(F)cc2)cc1)c1ccccc1` [Compound 124, (2S,4R)-4-benzyl-N-(4-(4-fluorophenoxy)phenyl)-1-(4-oxo-4-phenylbutanoyl)pyrrolidine-2-carboxamide] cannot be ordered by IC50: no more than 300 nM for the first, no more than 300 nM for the second.

`O=C(Nc1ccc(Oc2ccc(F)cc2)cc1)[C@@H]1C[C@@H](Cc2cccs2)CN1C(=O)Cn1nccn1` [Compound 64, (2S,4S)-1-(2-(2H-1,2,3-triazol-2-yl)acetyl)-N-(4-(4-fluorophenoxy)phenyl)-4-(thien-2-ylmethyl)pyrrolidine-2-carboxamide] and `O=C(Nc1ccc(Oc2ccc(F)cc2)cc1)[C@@H]1C[C@@H](Cc2ccc(F)cc2)CN1C(=O)Cn1nccn1` [Compound 50, (2S,4R)-1-(2-(2H-1,2,3-triazol-2-yl)acetyl)-4-(4-fluorobenzyl)-N-(4-(4-fluorophenoxy)phenyl)pyrrolidine-2-carboxamide] cannot be ordered by IC50: no more than 300 nM for the first, no more than 300 nM for the second.

`CC(=O)Oc1ccc(C(=O)NC(COCc2ccccc2)C(=O)Nc2ccc(Oc3ccccc3)cc2)cc1` (stereo not drawn) [Compound 17, 4-(3-(benzyloxy)-1-oxo-1-(4-phenoxyphenylamino)propan-2-ylcarbamoyl)phenyl acetate] and `CC(=O)c1ccc(C(=O)NC(COCc2ccccc2)C(=O)Nc2ccc(Oc3ccccc3)cc2)cc1` (stereo not drawn) [Compound 396, 4-acetyl-N-(2-oxo-1-{[(phenylmethyl)oxy]methyl}-2-{[4-(phenyloxy)phenyl]amino}ethyl)benzamide] cannot be ordered by IC50: greater than 1000 nM for the first, greater than 1000 nM for the second.

Going from `COCCOCC(=O)N1C[C@H](Cc2ccccc2)C[C@H]1C(=O)Nc1ccc(Oc2ccc(F)cc2)cc1` [Compound 88, (2S,4R)-4-benzyl-N-(4-(4-fluorophenoxy)phenyl)-1-(2-(2-methoxyethoxy)acetyl)pyrrolidine-2-carboxamide] to `CCN(CC)C1CCN(CC(=O)N[C@@H](COCc2ccccc2)C(=O)Nc2ccc(Oc3ccc(F)cc3)cc2)C1` (stereo partly drawn) [Compound 109, (2S)-3-(benzyloxy)-2-(2-(3-(diethylamino)pyrrolidin-1-yl)acetamido)-N-(4-(4-fluorophenoxy)phenyl)propanamide], the IC50 rises from no more than 300 nM to greater than 1000 nM.

`CC(C)(C(=O)N[C@@H](COCc1ccc(F)cc1)C(=O)Nc1ccc(Oc2ccc(F)cc2)cc1)c1c[nH]cn1` [Compound 161, (S)-2-(2-(1H-imidazol-4-yl)-2-methylpropanamido)-3-(4-fluorobenzyloxy)-N-(4-(4-fluorophenoxy)phenyl)propanamide] and `Cc1nccn1CC(=O)N[C@@H](COCc1ccccc1)C(=O)Nc1ccc(Oc2ccc(F)cc2)cc1` [Compound 160, (S)-3-(benzyloxy)-N-(4-(4-fluorophenoxy)phenyl)-2-(2-(2-methyl-1H-imidazol-1-yl)acetamido)propanamide] cannot be ordered by IC50: no more than 300 nM for the first, no more than 300 nM for the second.

Compared with `CCCCc1ccc(C(=O)NC(COCc2ccccc2)C(=O)Nc2ccc(Oc3ccccc3)cc2)nc1` (stereo not drawn) [Compound 378, 5-butyl-N-(2-oxo-1-{[(phenylmethyl)oxy]methyl}-2-{[4-(phenyloxy)phenyl]amino}ethyl)pyridine-2-carboxamide], `COC(C(=O)NC(COCc1ccccc1)C(=O)Nc1ccc(Oc2ccccc2)cc1)c1ccccc1` (stereo not drawn) [Compound 353, N-(2-oxo-1-{[(phenylmethyl)oxy]methyl}-2-{[4-(phenyloxy)phenyl]amino}ethyl)-2-methoxy-2-phenylacetamide] is higher in IC50: 300 to 1000 nM for the first, greater than 1000 nM for the second.

`O=C(Cc1cncnc1)N[C@@H](COCc1ccccc1)C(=O)Nc1ccc(Oc2ccc(F)cc2)cc1` [Compound 250, (S)-3-(benzyloxy)-N-(4-(4-fluorophenoxy)phenyl)-2-(2-(pyrimidin-5-yl)acetamido)propanamide] was tested, and the IC50 was no more than 300 nM.
